Tests used:
[1] = tested on: fli1:EGFP zebrafish embryos (intersegmental vessel growth); assay: fli1:EGFP zebrafish embryo angiogenesis assay; format: in vivo; set-up: fli1:EGFP angiogenesis n (survived/tested): concentration or dose not given beside the values; settings: for minimal effective concentration: Danio rerio, lowest concentration producing an effect, compounds not producing an effect shown at the highest evaluated concentration; for fli1:EGFP angiogenesis n (survived/tested): embryos alive after 24 hours of exposure
Summary of the method: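 fli1:EGFP embryos grown 24 hpf, dechorionated and exposed to compound or vehicle over a range of concentrations for up to 24 h, with CPS49 as positive control. Imaged at 48 hpf for intersegmental vessel formation and growth; survival after 24 h exposure recorded, and values reflect the lowest concentration producing an effect.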

[2] = tested on: mpo:GFP zebrafish embryos (neutrophil migration to the wound site); assay: mpo:GFP zebrafish fin-clip neutrophil migration (inflammation) assay; format: in vivo; set-up: mpo:GFP inflammation n (survived/tested): concentration or dose not given beside the values; settings: for minimal effective concentration: Danio rerio, Neutrophil, lowest concentration producing an effect, compounds not producing an effect shown at the highest evaluated concentration; for mpo:GFP inflammation n (survived/tested): embryos survived/tested at the concentration given
Text: Zebrafish embryology: The use of zebrafish embryo (Danio rerio) bioassays as a preclinical model in the classification of novel compounds has increased in recent years due to several factors including; low cost, ease of maintenance, speed of embryonic development, transparency of the embryos and genetic conservation between zebrafish and humans (Howe et al., Nature 2013; 496:498; Therapontos et al., PNAS 2009, 106:8573; Mahony et al., PNAS 2013, 110:12703; Beedie et al., Oncotarget 2016, 7(22):33237; Beedie et al., Mol. Cancer Ther. 2015, 14(10):2228). Two established zebrafish reporter lines were used—the fli1:EGFP line, where the fli1 promoter drives expression of enhanced green fluorescent protein within the developing vasculature (Lawson et al., 2002), and the Tg(mpo::EGFP) line (also known as mpo:GFP), which expresses green fluorescent protein via the neutrophil specific myeloperoxidase promoter (Renshaw et al., Blood 2006, 108:3976). The use of these zebrafish transgenic reporter lines allows for the identification of potential anti-angiogenic and anti-inflammatory compounds respectively, and both have been used previously to successfully classify the action of thalidomide analogs (Therapontos et al., 2009; Mahony et al., 2013; Beedie et al., Oncotarget 2016, 7(22):33237; Beedie et al., Mol. Cancer Ther. 2015, 14(10):2228). Zebrafish embryos were treated with analogs as previously described (Mahony et al., 2013). Briefly, fli1:EGFP embryos were collected and embryos were allowed to develop for 24 hours. Embryos were dechorionated manually and exposed to test compounds or vehicle control for a further 24 hours, imaged and analyzed for intersegmental vessel (ISV) growth. At 24 hours post fertilisation (hpf) the ISVs were ideal to study to visualize and analyze the actions of compounds on angiogenesis. At this time point ISVs were rapidly forming beneath the developing head, over the body and had yet to form in the tail (Lawson and Weinstein, Developmental Biology 2002, 248:307; Therapontos and Vargesson, Developmental Dynamics 2010, 239:2761). Additionally, these sprouts would go on to form the bilateral dorsal longitudinal anastomotic vessels. By treating before this fusion and formation occurs, the effect of each compound on the individual vessels as well as overall patterning structural integrity (Isogai et al., Development 2003, 130:5281) could be determined. Tg(mpo::EGFP) were tail fin clipped as previously detailed (Renshaw et al., 2006; Mahony et al., 2013; Beedie et al., Oncotarget 2016, 7(22):33237; Beedie et al., Mol. Cancer Ther. 2015, 14(10):2228) and incubated with test compounds or vehicle control at 72 hours post fertilization. Fish were imaged at 24 hours and the number of migratory neutrophils present at the wound site were counted. Compounds inducing an at least 50% reduction of neutrophils to the wound site were considered to have anti-inflammatory properties in this system. All larvae were assessed for viability and morphological integrity.
To assess the immunomodulatory effects of the thalidomide analogs, the mpo:gfp transgenic zebrafish line (Renshaw et al., Blood 2006, 108:3976-3978) was utilized because it is an accepted model of inflammation, and can be used to test the effect of anti-inflammatory agents. These embryos express GFP-tagged myeloperoxidase, where green fluorescence marks the neutrophil cells involved in the inflammatory response process, for example following injury, from 72 hours post fertilization (Renshaw et al., 2006; Mahony et al., 2013; Beedie et al., Oncotarget 2016, 7(22):33237). At 72 hpf the dorsal third of the tail fin was removed and the embryos were immersed in the desired compound or vehicle (FIGS. 5A-5C). The embryos were examined for the effect on the inflammatory response quantified as an induction and migration of neutrophils to the wound site 24 hours later.

TNF-α protein = TNF-α protein level (ELISA) in LPS-challenged RAW 264.7 cells; format: cell-based, mouse; set-up: key: NS=not significant; a “+” sign=anti-inflammatory or increased cell numbers; a “−” sign=cell toxicity or pro-inflammatory; settings: LPS 30 or 60 ng/mL, 24 h
Summary of the method: (§1)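 RAW 264.7 cells pretreated 1 h with compound in DMSO vehicle, then challenged with LPS (30 or 60 ng/mL) for 24 h at 37° C. Conditioned-media nitrite by Griess (520 nm, sodium nitrite standard curve, 1.5 μM cutoff) in μM; mouse TNF-α by ELISA as pg/ml or % change from control.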

[3] = tested on: nitrite levels in the culture media; assay: Nitrite level (Griess Reagent System) in LPS-challenged RAW 264.7 cells; format: cell-based, mouse; set-up: key: NS=not significant; a “+” sign=anti-inflammatory or increased cell numbers; a “−” sign=cell toxicity or pro-inflammatory; settings: LPS 30 or 60 ng/mL, 24 h
Summary of the method: as §1

RAW 264.7 cells = assay: Cell viability (CellTiter 96 AQueous One) of LPS-challenged RAW 264.7 cells; format: cell-based, mouse; set-up: key: NS=not significant; a “+” sign=anti-inflammatory or increased cell numbers; a “−” sign=cell toxicity or pro-inflammatory
Summary of the method: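 RAW 264.7 murine macrophages pretreated 1 h with compound or DMSO vehicle, then challenged with LPS (serotype 055:B5) at 30 or 60 ng/mL final for 24 h. After media replacement, viability measured by tetrazolium (MTS) conversion, absorbance at 490 nm, reported as O.D.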

Row | SMILES | minimal effective concentration [1] | fli1:EGFP angiogenesis n (survived/tested) [1] | minimal effective concentration [2] | mpo:GFP inflammation n (survived/tested) [2] | TNF-α (TNF-α protein; 1 μM) | TNF-α (TNF-α protein; 10 μM) | TNF-α (TNF-α protein; 30 μM) | Nitrite ([3]; 1 μM) | Nitrite ([3]; 10 μM) | Nitrite ([3]; 30 μM) | Viability (RAW 264.7 cells; 1 μM) | Viability (RAW 264.7 cells; 10 μM) | Viability (RAW 264.7 cells; 30 μM)
1 | O=C1c2cccc([N+](=O)[O-])c2CN1c1nc2ccc(C(F)(F)F)cc2s1 [Compound 63] | 200 µg/mL | 6/23 | 100 µg/mL | 12/20 | NS | NS | NS | − | − | − | NS | NS | −
2 | CC1(C)S[C@@H]2[C@H](N3C(=O)c4ccccc4C3=O)C(=O)N2[C@H]1C(=O)O [Compound 64] | 10 µg/mL | 8/15 | 10 µg/mL | 8/15 | NS | NS | NS | NS | NS | NS | NS | NS | NS
3 | CC1(C)S[C@@H]2[C@H](N3Cc4ccccc4C3=O)C(=O)N2[C@H]1C(=O)O [Compound 65, (1)-(2S,5R,6R)-3,3-Dimethyl-7-oxo-6-(1-oxo-1,3-dihydro-1H-isoindol-2-yl)-4-thia-1-azabicyclo[3.2.0]heptane-2-carboxylic acid] | 200 µg/mL | 13/13 | 200 µg/mL | 10/20 | − | − | − | NS | NS | NS | NS | NS | NS
4 | FC(F)(F)c1ccc(/N=C2/c3ccccc3CN2c2ccc(C(F)(F)F)cn2)nc1 [Compound 66] | 100 µg/mL | 15/15 | 100 µg/mL | 6/15 | NS | NS | + | NS | NS | + | − | NS | −
5 | FC(F)(F)c1ccnc(/N=C2/c3ccccc3CN2c2cc(C(F)(F)F)ccn2)c1 [Compound 67, N-(4-Trifluoromethylpyridin-2-yl)-1-imino(4-trifluoromethylpyridin-2-yl)-isoindoline] | 10 µg/mL | 13/22 | 200 µg/mL | 6/15 | NS | NS | NS | NS | NS | + | NS | NS | NS
6 | O=C1c2ccccc2CN1c1ccc(C(F)(F)F)cc1 [Compound 68] | 10 µg/mL | 22/34 | 100 µg/mL | 5/15 | NS | NS | NS | NS | NS | NS | NS | NS | NS
7 | O=C1c2ccccc2CN1C12CC3CC(CC(C3)C1)C2 [Compound 69] | 10 µg/mL | 6/14 | 200 µg/mL | 8/17 | NS | NS | NS | NS | NS | NS | NS | NS | NS
8 | O=C1c2ccccc2CN1CC12CC3CC(CC(C3)C1)C2 [Compound 70] | 10 µg/mL | 8/10 | 200 µg/mL | 10/15 | NS | + | + | NS | NS | + | NS | NS | NS
9 | O=C1c2ccccc2CN1C1C2CC3CC(C2)CC1C3 (centres unmarked) [Compound 72, 2,3-Dihydro-2-(tricyclo[3.3.1.1^3,7]dec-2-yl)-1H-isoindol-1-one] | 200 µg/mL | 9/20 | 10 µg/mL | 6/15 | + | NS | + | NS | NS | + | + | NS | −
10 | O=C1c2ccccc2CN1C12CC3CC(CC1C3)C2 [Compound 73] | 10 µg/mL | 6/12 | 10 µg/mL | 7/13 | NS | NS | + | NS | + | + | NS | NS | −
11 | CC(N1Cc2ccccc2C1=S)C12CC3CC(CC(C3)C1)C2 (centres unmarked) [Compound 74, 2,3-Dihydro-2-[1-(1-tricyclo[3.3.1.1^3,7]dec-1-yl)ethyl]-1H-isoindol-1-thione] | 10 µg/mL | 9/15 | 200 µg/mL | 6/14 | NS | NS | NS | NS | NS | + | NS | NS | NS

Source: patent publication US11440880B2, “Thalidomide analogs and methods of use” (The USA, as represented by the Secretary, Department of …, priority 2015, dated 2022)
